The source of these data is PMC9231089, “Sorafenib Chemosensitization by Caryophyllane Sesquiterpenes in Liver, Biliary, and Pancreatic Cancer Cells: The Role of STAT3/ABC Transporter Axis” (Pharmaceutics, 2022).

Data set [1] relates to HepG2. Nature of the data set: Combination assay with sorafenib (MTT), HepG2.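 For increase of sorafenib cytotoxicity in combination: percent increase of sorafenib cell viability inhibition versus sorafenib alone.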 The class given is cell-based, human. The settings on record: for increase of sorafenib cytotoxicity in combination: verapamil/MK571 1 µg/mL or sesquiterpenes 10 µg/mL. The procedure: (§1) Suitable vehicle controls were also included.
(§2) The type of interaction (synergistic, additive, or antagonistic) among sorafenib and test substances or positive controls was evaluated by measuring the reversal ratio value (RR), combination index (CI), and isobolographic analysis (IB), as previously described.

Data set [2] concerns Mz-ChA-1. Kind of data set: Combination assay with sorafenib (MTT), Mz-ChA-1.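 For increase of sorafenib cytotoxicity in combination: percent increase of sorafenib cell viability inhibition versus sorafenib alone.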 The class given is cell-based, human. The procedure:
as §1, §2

Data set [3] has as its system Bx-PC3. Kind of data set: Combination assay with sorafenib (MTT), Bx-PC3.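 For increase of sorafenib cytotoxicity in combination: percent increase of sorafenib cell viability inhibition versus sorafenib alone.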 It is filed as cell-based, human. The procedure: as §1, §2
Another data set concerns phospho(Tyr705)-STAT3. Kind of data set: Western blotting of STAT3 phosphorylation in Bx-PC3 cells. The class given is cell-based, human. The following applies: for increase of STAT3 phosphorylation at tyrosine 705: substance alone, sorafenib and sesquiterpenes 10 μg/mL, verapamil/MK571 1 μg/mL, normalized to total STAT3; for reduction of phospho(Tyr705)-STAT3 with respect to sorafenib: substance in combination with sorafenib 10 μg/mL. The procedure:
as §1
Confluent cells were seeded in 6-well plates (5 × 10^5 cells/well), treated as described above, then harvested by centrifugation and washed in PBS. After lysis with a suitable buffer, the Western blotting analysis was carried out, according to previously published methods. […] The levels of phospho(Tyr705)-STAT3 were normalized against total STAT3 ones.
On the technique in general: Immunoblotting shows a protein as a band on a membrane.

In the next data set the test system is Bx-PC3 cells. Nature of the data set: Wound healing assay (cell migration). The class given is cell-based, human. The following applies: for increase of wound area: substance in combination with sorafenib 10 µg/mL, reference and time not stated. As for the experimental part:
To evaluate the effect of caryophyllane sesquiterpenes, both alone and in combination with sorafenib, on the cell migration rate, the wound healing assay was performed. Bx-PC3 cells were seeded in 24-well plate at a density of 2.5 × 10^5 cells/well. After 24 h, the wound was created by scratching the well bottom with a 100 μL pipette tip, then the cells were treated under the scheduled conditions and images were captured at 0, 4, and 72 h using a Cytation 1 Cell Imaging Multi-Mode Reader. […] Results were expressed as wound area percentage with respect to that of the same well at zero time. The positive controls were also included.

Data set [4] concerns HepG2. Nature of the data set: MTT cytotoxicity assay, substances alone, HepG2. The class given is cell-based, human. The following applies: HepG2. The procedure: as §1
(§3) The effect of the treatments on cell viability was measured by the MTT assay as previously described. A higher than 30% reduction of cell viability was considered as a significant cytotoxic effect.
(In general: Formazan colour is commonly taken as a measure of viable cells.)

Data set [5] relates to Mz-ChA-1. Kind of data set: MTT cytotoxicity assay, substances alone, Mz-ChA-1. The class given is cell-based, human. The following applies: Mz-ChA-1. As for the experimental part: as §1, §3
In data set [6] the test system is Bx-PC3. Kind of data set: MTT cytotoxicity assay, substances alone, Bx-PC3. The class given is cell-based, human. As for the experimental part: as §1, §3
Data set [7] relates to noncancerous H69 cholangiocytes. Kind of data set: MTT cytotoxicity assay (tolerability), substances alone, H69. The class given is cell-based, human. The settings on record: Homo sapiens; H69 noncancerous cholangiocytes; substance alone; 4 h exposure + 72 h recovery; read-out: IC50 (CL). The procedure: as §1, §3
The test system is the same in data set [8]. Nature of the data set: Combination assay with sorafenib (MTT), tolerability in H69. The class given is cell-based, human. The settings on record: sesquiterpene 10 μg/mL combined with sorafenib (protective effect at sorafenib 10 μg/mL). As for the experimental part:
as §1, §2

The test system of data set [9] is MRP1/2. Nature of the data set: ABC-mediated drug efflux assay, calcein-AM accumulation, HepG2 cells. It is filed as cell-based, human. The settings on record: 2 h pre-treatment, sesquiterpenes 10 μg/mL, vs control.
Experimental: (§5) Fluorescence was measured at excitation and emission wavelengths of 485 nm and 535 nm for both probes, using a Cytation 1 Cell Imaging Multimode Reader (Biotech, Santa Clara, CA, USA). Results were normalized to viable cells and expressed as percentage of the negative control.
The test system of data set [10] is MRP1/2. Nature of the data set: ABC-mediated drug efflux assay, calcein-AM accumulation, Mz-ChA-1 cells. The settings on record: 2 h pre-treatment, sesquiterpenes 10 μg/mL, vs control. The class given is cell-based, human.
Experimental: as §5
Data set [11] deals with MRP1/2. Nature of the data set: ABC-mediated drug efflux assay, calcein-AM accumulation, Bx-PC3 cells. The following applies: 2 h pre-treatment, sesquiterpenes 10 μg/mL, MK571 1 μg/mL, vs control. The class given is cell-based, human.
Experimental: as §5
Data set [12] concerns MRP1. Nature of the data set: RT-qPCR gene expression in Bx-PC3 cells, MRP1. It is filed as cell-based, human. The settings on record: substance in combination with sorafenib, given for MRP1 and MRP2 together.
From the text: as §1
(In general: Quantitative PCR measures a nucleic acid by following its amplification.)

For another data set, the system named is Pgp. Nature of the data set: Immunofluorescence analysis in Bx-PC3 cells, Pgp. The class given is cell-based, human. As for the experimental part:
as §1
(§4) The analysis was performed according to previously published methods. Confluent cells were seeded in 24-well plates (2 × 10^4 cells/well), allowed to adhere overnight, then treated as described above. After treatment, cells were fixed in pure methanol and washed with 4% bovine serum albumin (BSA) and PBS + Tween 20 (PBS-T) for 1 h. […] The expression and localization of Pgp, MRP1, and MRP2 pumps into cells were analyzed by using a Cytation 1 Cell Imaging Multimode Reader (Biotech, USA).

Data set [13] deals with MRP1. Nature of the data set: Immunofluorescence analysis in Bx-PC3 cells, MRP1. It is filed as cell-based, human. The following applies: substance 10 µg/mL in combination with sorafenib 10 µg/mL. As for the experimental part:
as §1, §4

Data set [14] relates to MRP2. Nature of the data set: Immunofluorescence analysis in Bx-PC3 cells, MRP2. It is filed as cell-based, human. The procedure: as §1, §4
Details of data set [15]: method as in PMID 33081075. The settings on record: European Food Safety Authority; cited from earlier work.
The subject of another data set is MDR1. Kind of data set: RT-qPCR gene expression in Bx-PC3 cells, MDR1.
In data set [16] the test system is MRP2. Kind of data set: RT-qPCR gene expression in Bx-PC3 cells, MRP2. The following applies: substance in combination with sorafenib, given for MRP1 and MRP2 together.
Experimental: (§6) Confluent cells were treated with the test substances, both alone or in combination with the anticancer drug, for 4 h, then washed and incubated for a further 72 h (Figure 1), according to previously published protocols [20]. […] Suitable vehicle controls were also included.
(§7) The results of mRNA abundance for the targeted genes in each sample were normalized on the basis of GAPDH (Bio-Rad, Hercules, CA, USA) mRNA. Data are expressed as 2^−ΔCt, calculated using the CFX Manager software (Bio-Rad).

Where a name gives a salt, the structure may show the parent alone. Where only a bound is given, the exact number is not on record here.

One may read the IC50 as the midpoint of a concentration-inhibition curve.

Experimental for MDR1: as §6, §7

Regarding `COc1ccc(CCN(C)CCCC(C#N)(c2ccc(OC)c(OC)c2)C(C)C)cc1OC` (centres unmarked) [Verapamil, verapamil hydrochloride, reference compound], the “reduction of sorafenib IC50 in the presence of the substance” value in the data set on HepG2 [1] was “approximately 3 fold”; with Mz-ChA-1 [2] it was 1.5 fold; in the data set with Bx-PC3 [3], approximately 2 fold. The “increase of STAT3 phosphorylation at tyrosine 705” value with phospho(Tyr705)-STAT3 was determined as 1.1 fold. In addition, the “reduction of phospho(Tyr705)-STAT3 with respect to sorafenib” value in the data set on phospho(Tyr705)-STAT3 is given as “lower reduction”. Moreover, in the data set with Bx-PC3 cells, the “increase of wound area” value was “lowered the anti-migration effect of sorafenib”.

For `C=C1CC/C=C(\C)CC[C@@H]2[C@@H]1CC2(C)C` [β-Caryophyllene, β-caryophyllene], the “IC50 higher than that of sorafenib” value in the data set on HepG2 [4] was 1.6 fold; in the data set on Bx-PC3 [6], “comparable”. For the same compound, the IC50 in the data set with Mz-ChA-1 [5] (Homo sapiens, substance alone, 4 h exposure + 72 h recovery) was determined as 62.7 µg/mL; in the data set on Bx-PC3 [6] (Homo sapiens, BXPC-3, substance alone, 4 h exposure + 72 h recovery), 36.3 µg/mL. In addition, in the data set on Mz-ChA-1 [5], the “IC50 lower with respect to sorafenib” value was “approximately 1.2 fold”. The entries for the “higher cytotoxicity with respect to β-caryophyllene oxide” value with Mz-ChA-1 [5] and in the data set with Bx-PC3 [6] were “approximately 1.5 fold” and approximately 1.8 fold, respectively. Besides, the “inhibition of cell viability” value in the data set with Mz-ChA-1 [5] (50 µg/mL) was determined as 35%; in the data set with Mz-ChA-1 [5] (250 µg/mL), 96%; in the data set on Bx-PC3 [6] (50 µg/mL), 70%; in the data set on Bx-PC3 [6] (250 µg/mL), 95%. The CC50 in data set [7] worked out at 67 µg/mL. Also, the “reduction of sorafenib IC50 in the presence of the substance” value with HepG2 [1] is given as “approximately 2.9 fold”; with Mz-ChA-1 [2] it was “approximately 1.7 fold”; with Bx-PC3 [3], 5 fold. Besides, the “combination index (CI) with sorafenib” value in the data set with HepG2 [1] (CI lower than 1 = synergistic) stood at 0.47; in the data set with Mz-ChA-1 [2] (CI lower than 1 = synergistic) it was 0.74; in the data set with Bx-PC3 [3] (CI lower than 1 = synergistic), 0.46. The “increase of sorafenib cytotoxicity in combination” value was 5% with HepG2 [1] (sorafenib 1 µg/mL); “approximately 33%” in the data set on HepG2 [1] (sorafenib 10 µg/mL); 19% in the data set on Mz-ChA-1 [2] (sorafenib 10 µg/mL, verapamil/MK571 1 µg/mL or sesquiterpenes 10 µg/mL); 17% in the data set on Mz-ChA-1 [2] (sorafenib 50 µg/mL, sesquiterpenes 10 µg/mL); 56% in the data set with Bx-PC3 [3] (sesquiterpenes 10 µg/mL, sorafenib concentration not stated (Figure 3F)). The “effect on sorafenib cytotoxicity in noncancerous cells” value in [8] is recorded as “slight protective effects”. Further, the “increase of calcein-AM accumulation” value was 1.2 fold in the data set on MRP1/2 [9], 1.3 fold in the data set with MRP1/2 [10] and 1.9 fold with MRP1/2 [11]. Moreover, the “reduction of MRP1 gene expression” value in the data set on MRP1 [12] is 4 fold. Also, in the data set on Pgp (substance alone, sorafenib and sesquiterpenes 10 µg/mL, verapamil 1 µg/mL), the “effect on Pgp expression (immunofluorescence)” value is recorded as “did not affect”. Further, the “reduction of Pgp expression compared to control” value in the data set with Pgp (substance in combination with sorafenib 10 μg/mL) was approximately 1.9 fold. In addition, in the data set with MRP1 [13], the “reduction of MRP1 expression with respect to sorafenib” value amounted to 1.8 fold. Moreover, the “reduction of MRP2 expression with respect to sorafenib” value in the data set with MRP2 [14] (substance 10 µg/mL in combination with sorafenib 10 µg/mL) was 1.3 fold. In addition, the “increase of MRP2 expression (immunofluorescence)” value with MRP2 [14] (substance alone, 10 µg/mL) came to 1.4 fold. The “increase of STAT3 phosphorylation at tyrosine 705” value in the data set with phospho(Tyr705)-STAT3 is recorded as “approximately 3 fold”. Moreover, the “reduction of phospho(Tyr705)-STAT3 with respect to sorafenib” value in the data set with phospho(Tyr705)-STAT3 is 2.1 fold. The “wound area / cell migration after 72 h” value with Bx-PC3 cells (substance alone, sesquiterpenes 10 µg/mL, verapamil/MK571 1 µg/mL) is “almost complete closure of wound area”. In addition, in the data set with Bx-PC3 cells, the “increase of wound area” value is approximately 4.1 fold. Moreover, the “considered safe up to (approved as flavoring)” value in data set [15] is not above 222 mg/kg/die. Also, the “increase of MDR1 gene expression with respect to control” value with MDR1 (substance alone, 4 h exposure + 72 h recovery) came out at 2.7 fold. The “downregulation of MDR1 gene with respect to sorafenib alone” value with MDR1 (substance in combination with sorafenib) came to 1.9 fold. Further, the “reduction of MRP2 gene expression” value with MRP2 [16] is 4 fold.
